Columns and labels:
[1] = target: Phosphorylase b kinase regulatory subunit alpha, liver isoform (Homo sapiens) (UniProt P46019); conditions: Compound concentration 1000.0 nM
[2] = target: Beta-1 adrenergic receptor (Homo sapiens) (UniProt P08588); conditions: Compound concentration 10.0 uM
Description: b 1 CEREP ligand profiling

[3] = target: 5-hydroxytryptamine receptor 3A (Homo sapiens) (UniProt P46098); conditions: Compound concentration 10.0 uM
Description: 5-HT3 CEREP ligand profiling

[4] = target: Type-2 angiotensin II receptor (Homo sapiens) (UniProt P50052); conditions: Compound concentration 10.0 uM
Chain of Type-2 angiotensin II receptor (Homo sapiens) (P50052 whole entry): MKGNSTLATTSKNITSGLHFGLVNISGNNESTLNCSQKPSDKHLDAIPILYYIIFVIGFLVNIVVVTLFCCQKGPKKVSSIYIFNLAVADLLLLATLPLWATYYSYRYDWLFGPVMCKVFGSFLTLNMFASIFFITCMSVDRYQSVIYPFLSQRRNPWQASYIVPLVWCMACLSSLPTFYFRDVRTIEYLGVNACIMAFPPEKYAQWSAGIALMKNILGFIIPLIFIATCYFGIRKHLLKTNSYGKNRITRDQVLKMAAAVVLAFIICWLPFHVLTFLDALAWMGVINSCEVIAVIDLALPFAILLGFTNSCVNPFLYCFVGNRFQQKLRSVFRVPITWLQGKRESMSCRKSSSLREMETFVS
Description: AT2 CEREP ligand profiling

[5] = target: Histamine H1 receptor (Homo sapiens) (UniProt P35367); test: H1 CEREP ligand profiling; conditions: Compound concentration 10.0 uM
Chain of Histamine H1 receptor (Homo sapiens) (P35367 whole entry): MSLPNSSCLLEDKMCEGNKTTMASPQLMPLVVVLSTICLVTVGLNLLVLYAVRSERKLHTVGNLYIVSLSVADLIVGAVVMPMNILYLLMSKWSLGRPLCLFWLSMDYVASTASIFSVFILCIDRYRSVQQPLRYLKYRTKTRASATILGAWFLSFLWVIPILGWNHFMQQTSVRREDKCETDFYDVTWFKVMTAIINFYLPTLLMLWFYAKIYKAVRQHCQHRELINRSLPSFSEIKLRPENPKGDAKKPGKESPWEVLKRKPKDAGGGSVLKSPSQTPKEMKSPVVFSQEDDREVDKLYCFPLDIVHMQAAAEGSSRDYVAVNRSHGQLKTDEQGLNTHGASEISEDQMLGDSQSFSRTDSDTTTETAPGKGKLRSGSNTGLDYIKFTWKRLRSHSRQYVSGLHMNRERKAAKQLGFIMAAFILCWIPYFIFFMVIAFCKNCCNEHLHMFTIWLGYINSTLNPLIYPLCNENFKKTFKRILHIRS

[6] = target: Calcitonin-gene-related peptide receptor, CALCRL/RAMP1 (Homo sapiens) (UniProt O60894+Q16602); conditions: Compound concentration 10.0 uM
Description: CGRP CEREP ligand profiling

[7] = target: 5-hydroxytryptamine receptor 7 (Homo sapiens) (UniProt P34969); conditions: Compound concentration 10.0 uM
Description: 5-HT7 CEREP ligand profiling

[8] = target: Endothelin-1 receptor (Homo sapiens) (UniProt P25101); conditions: Compound concentration 10.0 uM
Description: ETA CEREP ligand profiling

[9] = target: D(1B) dopamine receptor (Homo sapiens) (UniProt P21918); conditions: Compound concentration 10.0 uM
Chain of D(1B) dopamine receptor (Homo sapiens) (P21918 whole entry): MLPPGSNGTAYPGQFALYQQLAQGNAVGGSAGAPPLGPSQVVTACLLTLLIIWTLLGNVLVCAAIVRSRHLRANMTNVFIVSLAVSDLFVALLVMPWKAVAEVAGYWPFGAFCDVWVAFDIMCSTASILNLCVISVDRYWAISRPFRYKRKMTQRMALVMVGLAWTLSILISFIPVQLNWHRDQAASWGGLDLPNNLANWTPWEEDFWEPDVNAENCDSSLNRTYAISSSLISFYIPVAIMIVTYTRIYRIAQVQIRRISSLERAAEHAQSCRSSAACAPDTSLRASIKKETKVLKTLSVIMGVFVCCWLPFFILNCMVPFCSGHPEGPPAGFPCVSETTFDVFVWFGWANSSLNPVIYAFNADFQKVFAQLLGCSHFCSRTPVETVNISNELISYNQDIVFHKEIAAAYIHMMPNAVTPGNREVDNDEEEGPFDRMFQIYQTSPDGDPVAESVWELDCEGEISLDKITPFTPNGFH
Description: D5 CEREP ligand profiling

[10] = target: C-C chemokine receptor type 1 (Homo sapiens) (UniProt P32246); conditions: Compound concentration 10.0 uM
Chain of C-C chemokine receptor type 1 (Homo sapiens) (P32246 whole entry): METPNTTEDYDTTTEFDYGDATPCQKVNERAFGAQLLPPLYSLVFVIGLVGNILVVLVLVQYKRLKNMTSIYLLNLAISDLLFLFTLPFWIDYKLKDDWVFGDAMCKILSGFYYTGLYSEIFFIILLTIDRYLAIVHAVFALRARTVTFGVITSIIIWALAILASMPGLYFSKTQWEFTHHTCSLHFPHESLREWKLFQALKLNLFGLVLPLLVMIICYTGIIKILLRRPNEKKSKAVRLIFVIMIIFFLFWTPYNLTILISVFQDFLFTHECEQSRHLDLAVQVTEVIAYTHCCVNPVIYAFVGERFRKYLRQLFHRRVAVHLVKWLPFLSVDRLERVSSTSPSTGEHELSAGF
Description: CCR1 CEREP ligand profiling

[11] = target: Type-1 angiotensin II receptor (Homo sapiens) (UniProt P30556); conditions: Compound concentration 10.0 uM
Chain of Type-1 angiotensin II receptor (Homo sapiens) (P30556 whole entry): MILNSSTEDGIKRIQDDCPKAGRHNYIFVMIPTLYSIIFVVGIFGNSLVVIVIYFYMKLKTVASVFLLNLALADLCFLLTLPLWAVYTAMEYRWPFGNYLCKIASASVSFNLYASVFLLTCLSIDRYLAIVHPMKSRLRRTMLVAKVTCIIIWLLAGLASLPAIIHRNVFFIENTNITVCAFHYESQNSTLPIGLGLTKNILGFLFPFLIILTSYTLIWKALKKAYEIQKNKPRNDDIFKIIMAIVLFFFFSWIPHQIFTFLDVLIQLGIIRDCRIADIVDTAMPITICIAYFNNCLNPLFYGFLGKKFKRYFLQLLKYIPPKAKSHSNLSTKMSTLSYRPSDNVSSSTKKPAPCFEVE
Description: AT1 CEREP ligand profiling

[12] = target: Vasoactive intestinal polypeptide receptor 1 (Homo sapiens) (UniProt P32241); conditions: Compound concentration 10.0 uM
Chain of Vasoactive intestinal polypeptide receptor 1 (Homo sapiens) (P32241 whole entry): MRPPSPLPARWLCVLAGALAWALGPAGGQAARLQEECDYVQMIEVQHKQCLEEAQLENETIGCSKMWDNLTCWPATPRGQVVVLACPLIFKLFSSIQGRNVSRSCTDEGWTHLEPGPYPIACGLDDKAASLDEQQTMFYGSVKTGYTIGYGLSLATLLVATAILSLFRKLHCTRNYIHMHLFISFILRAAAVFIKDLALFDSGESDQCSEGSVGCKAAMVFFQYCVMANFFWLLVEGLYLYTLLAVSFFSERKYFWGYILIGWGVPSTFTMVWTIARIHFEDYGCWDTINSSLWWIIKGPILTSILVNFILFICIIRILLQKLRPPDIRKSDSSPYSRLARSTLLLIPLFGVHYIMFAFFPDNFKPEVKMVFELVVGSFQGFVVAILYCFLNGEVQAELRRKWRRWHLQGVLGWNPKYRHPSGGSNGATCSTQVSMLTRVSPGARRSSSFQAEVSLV
Description: VIP1 (VPAC1) CEREP ligand profiling

[13] = target: Neuropeptide Y receptor type 2 (Homo sapiens) (UniProt P49146); conditions: Compound concentration 10.0 uM
Chain of Neuropeptide Y receptor type 2 (Homo sapiens) (P49146 whole entry): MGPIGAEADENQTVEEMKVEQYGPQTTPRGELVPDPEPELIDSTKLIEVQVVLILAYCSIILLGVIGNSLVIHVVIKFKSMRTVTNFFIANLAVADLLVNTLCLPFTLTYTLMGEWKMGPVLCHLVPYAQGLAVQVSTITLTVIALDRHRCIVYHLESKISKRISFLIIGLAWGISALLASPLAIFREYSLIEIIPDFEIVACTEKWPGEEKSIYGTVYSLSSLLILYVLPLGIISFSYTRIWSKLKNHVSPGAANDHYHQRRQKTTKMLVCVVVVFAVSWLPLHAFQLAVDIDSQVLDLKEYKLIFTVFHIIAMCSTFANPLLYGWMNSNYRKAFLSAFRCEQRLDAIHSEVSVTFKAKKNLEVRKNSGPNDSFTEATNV
Description: Y2 CEREP ligand profiling

[14] = target: Neuromedin-K receptor (Homo sapiens) (UniProt P29371); test: NK3 CEREP ligand profiling; conditions: Compound concentration 10.0 uM
[15] = target: Endothelin receptor type B (Homo sapiens) (UniProt P24530); conditions: Compound concentration 10.0 uM
Chain of Endothelin receptor type B (Homo sapiens) (P24530 whole entry): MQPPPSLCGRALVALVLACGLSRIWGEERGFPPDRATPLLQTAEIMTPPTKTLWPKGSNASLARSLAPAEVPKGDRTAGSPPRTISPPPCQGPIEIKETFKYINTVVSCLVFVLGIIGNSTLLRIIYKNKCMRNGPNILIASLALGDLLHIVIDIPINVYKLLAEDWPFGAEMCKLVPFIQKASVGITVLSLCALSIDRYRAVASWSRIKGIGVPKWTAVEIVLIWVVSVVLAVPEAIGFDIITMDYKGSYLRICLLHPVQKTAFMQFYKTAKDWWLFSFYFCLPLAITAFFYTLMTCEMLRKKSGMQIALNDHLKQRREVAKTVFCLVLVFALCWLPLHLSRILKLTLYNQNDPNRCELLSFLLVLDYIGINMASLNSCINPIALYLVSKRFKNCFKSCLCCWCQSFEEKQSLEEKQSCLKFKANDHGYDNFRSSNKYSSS
Description: ETB CEREP ligand profiling

[16] = target: Pituitary adenylate cyclase-activating polypeptide type I receptor (Homo sapiens) (UniProt P41586); conditions: Compound concentration 10.0 uM
Description: PACAP CEREP ligand profiling

[17] = target: Thromboxane A2 receptor (Homo sapiens) (UniProt P21731); conditions: Compound concentration 10.0 uM
Chain of Thromboxane A2 receptor (Homo sapiens) (P21731 whole entry): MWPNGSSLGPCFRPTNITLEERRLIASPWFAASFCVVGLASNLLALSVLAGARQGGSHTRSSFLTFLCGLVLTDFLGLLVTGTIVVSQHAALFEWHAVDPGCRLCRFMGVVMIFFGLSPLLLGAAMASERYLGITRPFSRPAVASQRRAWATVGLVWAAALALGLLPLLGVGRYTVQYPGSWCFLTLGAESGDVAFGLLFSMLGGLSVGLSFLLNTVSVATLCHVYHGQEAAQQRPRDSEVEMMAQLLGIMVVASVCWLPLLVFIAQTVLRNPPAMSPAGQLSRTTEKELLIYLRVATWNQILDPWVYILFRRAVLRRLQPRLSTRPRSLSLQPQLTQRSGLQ
Description: TXA2/PGH2 CEREP ligand profiling

[18] = target: Bombesin receptor (Homo sapiens) (UniProt P28336+P32247+P30550); conditions: Compound concentration 10.0 uM
Description: Bombesin CEREP ligand profiling

Chain of 5-hydroxytryptamine receptor 3A (Homo sapiens) (P46098 whole entry): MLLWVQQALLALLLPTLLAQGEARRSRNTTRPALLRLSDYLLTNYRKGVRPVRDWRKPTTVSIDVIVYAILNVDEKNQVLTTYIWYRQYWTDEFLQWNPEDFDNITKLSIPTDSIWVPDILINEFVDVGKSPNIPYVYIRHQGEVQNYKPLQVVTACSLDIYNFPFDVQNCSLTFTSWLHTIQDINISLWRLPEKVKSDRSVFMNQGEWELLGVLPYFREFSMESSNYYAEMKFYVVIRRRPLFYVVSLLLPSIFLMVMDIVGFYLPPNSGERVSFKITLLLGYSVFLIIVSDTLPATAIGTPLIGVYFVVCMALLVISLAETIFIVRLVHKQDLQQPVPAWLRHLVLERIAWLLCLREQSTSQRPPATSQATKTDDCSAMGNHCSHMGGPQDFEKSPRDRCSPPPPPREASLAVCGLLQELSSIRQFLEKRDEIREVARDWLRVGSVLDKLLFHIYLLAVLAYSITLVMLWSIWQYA
Chain of Beta-1 adrenergic receptor (Homo sapiens) (P08588 whole entry, looked up): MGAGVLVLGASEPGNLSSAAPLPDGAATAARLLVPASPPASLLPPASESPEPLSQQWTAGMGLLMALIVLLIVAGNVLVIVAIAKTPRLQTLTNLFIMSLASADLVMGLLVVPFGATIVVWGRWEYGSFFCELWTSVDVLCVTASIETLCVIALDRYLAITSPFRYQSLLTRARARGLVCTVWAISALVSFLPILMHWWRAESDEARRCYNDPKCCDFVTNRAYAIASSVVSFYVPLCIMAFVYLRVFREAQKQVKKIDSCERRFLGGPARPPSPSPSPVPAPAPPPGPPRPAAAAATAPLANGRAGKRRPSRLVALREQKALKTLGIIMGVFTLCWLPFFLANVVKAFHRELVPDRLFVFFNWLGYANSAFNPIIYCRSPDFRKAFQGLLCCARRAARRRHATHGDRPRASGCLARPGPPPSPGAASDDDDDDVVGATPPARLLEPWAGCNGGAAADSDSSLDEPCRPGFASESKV

CSc1cccnc1N1CCN(Cc2nc3ccccc3[nH]2)CC1 [A-769]
inactive: residual activity [1] 100%

c1ccc(N2CCN(Cc3nc4ccccc4[nH]3)CC2)nc1 [ABT-724]
inactive: inhibition [2] < 10% | inhibition [3] 10% | inhibition [4] < 10% | inhibition [5] 17% | inhibition [6] < 10% | inhibition [7] < 10% | inhibition [8] < 10% | inhibition [9] < 10% | inhibition [10] < 10% | inhibition [11] < 10% | inhibition [12] < 10% | inhibition [13] < 10% | inhibition [14] 26% | inhibition [15] < 10% | inhibition [16] < 10% | inhibition [17] < 10% | inhibition [18] < 10%

— ChEMBL document CHEMBL4507260 (2021)
